Here are results for 35 molecules from patent US11370774B2, “Substituted benzofuran, benzopyrrole, benzothiophene, and structurally related complement inhibitors” (BioCryst Pharmaceuticals, Inc., priority 2018, dated 2022).

Each structure is given as a SMILES string. Some results are limits rather than exact numbers.

The target of this test is Factor D (Homo sapiens (Human), UniProt P00746). Put plainly: Factor D esterolytic assay (Z-Lys-SBzl substrate, DTNB, 405 nm). The test is classed as biochemical. The conditions noted are these: Z-Lys-SBzl 1.29 mM, pH 7.5, 10% DMSO, tested a minimum of three times, read-out: Measured Ki (IC50) Value for Compounds: IC50. The method, boiled down:
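Thioester hydrolysis (Z-Lys-SBzl, 1.29 mM) by human Factor D ([…]) detected through DTNB color at 405 nm over 600 sec, minus 690 nm background. Buffer: 100 mM HEPES pH 7.5, 500 mM NaCl, 10% DMSO; optional room-temperature preincubation before substrate. IC50 derived from percent rate inhibition; at least three runs.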

Chain of Factor D (P00746 26-253): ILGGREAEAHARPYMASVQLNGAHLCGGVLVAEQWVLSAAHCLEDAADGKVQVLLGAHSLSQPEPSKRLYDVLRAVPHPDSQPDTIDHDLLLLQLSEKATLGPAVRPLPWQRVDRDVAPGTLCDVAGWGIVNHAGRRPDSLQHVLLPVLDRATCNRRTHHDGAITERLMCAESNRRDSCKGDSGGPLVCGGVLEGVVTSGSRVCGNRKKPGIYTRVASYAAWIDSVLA

Take `Cc1cccc(CC(=O)O)c1OCc1cc(-c2cccc(CN)c2)c2occc2c1` [Compound 274g, 2-(2-((7-(3-(aminomethyl)phenyl)benzofuran-5-yl)methoxy)-3-methylphenyl)acetic acid]: the IC50 – broadly, the concentration that inhibits the measured activity by half – was < 1 µM.

As for `NCc1nccc(-c2cc(COc3cc(F)ccc3CC(=O)O)cc3c(C(F)(F)F)coc23)c1F` [Compound 490c, 2-(2-((7-(2-(aminomethyl)-3-fluoropyridin-4-yl)-3-(trifluoromethyl)benzofuran-5-yl)methoxy)-4-fluorophenyl)acetic acid], the IC50 is < 1 µM.

On to `N#Cc1cccc(C(=O)NCc2cc3cc(COc4ccccc4CC(=O)O)cc(-c4cccc(CN)c4)c3o2)c1` [Compound 295c, 2-(2-((7-(3-(aminomethyl)phenyl)-2-((3-cyanobenzamido)methyl)benzofuran-5-yl)methoxy)phenyl)acetic acid], for which the IC50 is < 1 µM.

Turning to `Nc1c[nH]c2c(-c3cc(COc4ccccc4CC(=O)O)cc4ccoc34)cccc12` [Compound 341e, 2-(2-((7-(3-amino-1H-indol-7-yl)benzofuran-5-yl)methoxy)phenyl)acetic acid], the IC50 was < 1 µM.

`NCc1cccc(-c2cc(COc3ccccc3CC(=O)O)cc3ccoc23)n1` [Compound 79c, 2-(2-((7-(6-(aminomethyl)pyridin-2-yl)benzofuran-5-yl)methoxy)phenyl)acetic acid]: the IC50 was < 1 µM.

`NCc1cccc(-c2cc(COc3cc(-c4ccncc4)ccc3CC(=O)O)cc3ccoc23)c1` [Compound 323c, 2-(2-((7-(3-(aminomethyl)phenyl)benzofuran-5-yl)methoxy)-4-(pyridin-4-yl)phenyl)acetic acid]: the IC50 was < 1 µM.

Consider `NCc1cccc(-c2cc(COc3ccccc3CC(=O)O)cc3nncn23)c1` [Compound 159f, 2-(2-((5-(3-(aminomethyl)phenyl)-[1,2,4]triazolo[4,3-a]pyridin-7-yl)methoxy)phenyl)acetic acid], for which the IC50 is 1 to 10 µM.

With `NCc1cccc(-c2cc(COc3ccncc3CC(=O)O)cc3ccoc23)c1` [Compound 163d, 2-(4-((7-(3-(aminomethyl)phenyl)benzofuran-5-yl)methoxy)pyridin-3-yl)acetic acid], the concentration for half-maximal inhibition (IC50) was < 1 µM.

Consider `NCc1nccc(-c2cc(COc3ccccc3CC(=O)O)cc3cc(C(F)(F)F)oc23)c1F` [Compound 240d, 2-(2-((7-(2-(aminomethyl)-3-fluoropyridin-4-yl)-2-(trifluoromethyl)benzofuran-5-yl)methoxy)phenyl)acetic acid], for which the IC50 was < 1 µM.

Turning to `NCc1cccc(-c2cc(COc3cc(F)ccc3CC(=O)O)cc3ccoc23)c1F` [Compound 363b, 2-(2-((7-(3-(aminomethyl)-2-fluorophenyl)benzofuran-5-yl)methoxy)-4-fluorophenyl)acetic acid], the concentration for half-maximal inhibition (IC50) is < 1 µM.

Consider `Cc1cc(CC(=O)O)c(OCc2cc(-c3cccc(CN)c3)c3occc3c2)cc1C` [Compound 276f, 2-(2-((7-(3-(aminomethyl)phenyl)benzofuran-5-yl)methoxy)-4,5-dimethylphenyl)acetic acid], for which the 50% inhibitory concentration (IC50) is < 1 µM.

`CCCc1cc2cc(COc3ccccc3CC(=O)O)cc(-c3ccnc(CN)c3F)c2o1` [Compound 190c, 2-(2-((7-(2-(aminomethyl)-3-fluoropyridin-4-yl)-2-propylbenzofuran-5-yl)methoxy)phenyl)acetic acid]: the IC50 is < 1 µM.

With `COCc1cc2cc(COc3ccccc3CC(=O)O)cc(-c3cccc(CN)c3F)c2o1` [Compound 99b, 2-(2-((7-(3-(aminomethyl)-2-fluorophenyl)-2-(methoxymethyl)benzofuran-5-yl)methoxy)phenyl)acetic acid], the IC50 is < 1 µM.

For the molecule `COCc1cc2cc(COc3cc(NC(C)=O)ccc3CC(=O)O)cc(-c3cccc(CN)c3F)c2o1` [Compound 441c, 2-(4-acetamido-2-((7-(3-(aminomethyl)-2-fluorophenyl)-2-(methoxymethyl)benzofuran-5-yl)methoxy)phenyl)acetic acid], the IC50 was < 1 µM.

Consider `COc1ncc(-c2ccc(CC(=O)O)c(OCc3cc(-c4cccc(CN)c4)c4occc4c3)c2)cc1C` [Compound 322d, 2-(2-((7-(3-(aminomethyl)phenyl)benzofuran-5-yl)methoxy)-4-(6-methoxy-5-methylpyridin-3-yl)phenyl)acetic acid], for which the IC50 is < 1 µM.

On to `COC(=O)Cc1ccccc1NC(=O)c1nc(-c2cccc(CN)c2)nc2c1CCC2` [Compound 2e, methyl 2-(2-(2-(3-(aminomethyl)phenyl)-6,7-dihydro-5H-cyclopenta[d]pyrimidine-4-carboxamido)phenyl)acetate], for which the IC50 is > 10 µM.

In the case of `Cc1cccc(CC(=O)O)c1NC(=O)c1cc(-c2cccc(CN)c2)c2occc2c1` [Compound 165f, 2-(2-(7-(3-(aminomethyl)phenyl)benzofuran-5-carboxamido)-3-methylphenyl)acetic acid], the concentration for half-maximal inhibition (IC50) is < 1 µM.

With `COc1cccc(CC(=O)O)c1OCc1cc(-c2ccnc(CN)c2)c2occc2c1` [Compound 512d, 2-(2-((7-(2-(aminomethyl)pyridin-4-yl)benzofuran-5-yl)methoxy)-3-methoxyphenyl)acetic acid], the IC50 is < 1 µM.

Take `Cc1ccc(OCc2cc(-c3cccc(CN)c3)c3occc3c2)c(CC(=O)O)c1` [Compound 162e, 2-(2-((7-(3-(aminomethyl)phenyl)benzofuran-5-yl)methoxy)-5-methylphenyl)acetic acid]: the IC50 is < 1 µM.

For the molecule `NCc1cccc(-c2cc(COc3ccccc3CC(=O)O)cc3sccc23)c1` [Compound 116f, 2-(2-((4-(3-(aminomethyl)phenyl)benzo[b]thiophen-6-yl)methoxy)phenyl)acetic acid], the IC50 was < 1 µM.

Consider `NCc1cccc(-c2cc(C(=O)Nc3ccccc3CC(=O)O)cc3[nH]ccc23)c1F` [Compound 37c, 2-(2-(4-(3-(aminomethyl)-2-fluorophenyl)-1H-indole-6-carboxamido)phenyl)acetic acid], for which the IC50 was < 1 µM.

On to `CCc1ccc(CC(=O)O)c(OCc2cc(-c3ccnc(CN)c3)c3occc3c2)c1` [Compound 371c, 2-(2-((7-(2-(aminomethyl)pyridin-4-yl)benzofuran-5-yl)methoxy)-4-ethylphenyl)acetic acid], for which the IC50 was < 1 µM.

With `NCc1cccc(-c2cc(COc3cc(F)ccc3CC(=O)O)c(F)c3ccoc23)c1` [Compound 484c, 2-(2-((7-(3-(aminomethyl)phenyl)-4-fluorobenzofuran-5-yl)methoxy)-4-fluorophenyl)acetic acid], the half-maximal inhibitory concentration (IC50) is < 1 µM.

For `COc1ccc(OCc2cc(-c3cccc(CN)c3)c3occc3c2)c(CC(=O)O)c1` [Compound 350e, 2-(2-((7-(3-(aminomethyl)phenyl)benzofuran-5-yl)methoxy)-5-methoxyphenyl)acetic acid], the IC50 is < 1 µM.

For the molecule `NCc1cccc(-c2cc(COc3ccccc3CC(=O)O)cc3c2ccn3-c2ccccc2)c1` [Compound 351f, 2-(2-((4-(3-(aminomethyl)phenyl)-1-phenyl-1H-indol-6-yl)methoxy)phenyl)acetic acid], the IC50 was < 1 µM.

As to `Cc1cc(CN)cc(-c2cc(COc3ccccc3CC(=O)O)cc3ccoc23)c1` [Compound 89c, 2-(2-((7-(3-(aminomethyl)-5-methylphenyl)benzofuran-5-yl)methoxy)phenyl)acetic acid], the IC50 is < 1 µM.

Consider `NCc1nccc(-c2c(F)c(COc3ccccc3CC(=O)O)cc3ccoc23)c1F` [Compound 531c, 2-(2-((7-(2-(aminomethyl)-3-fluoropyridin-4-yl)-6-fluorobenzofuran-5-yl)methoxy)phenyl)acetic acid], for which the IC50 was < 1 µM.

As for `NCc1cccc(-c2cc(C(=O)Nc3ccccc3CC(=O)O)cn3cnnc23)c1` [Compound 17c, 2-(2-(8-(3-(aminomethyl)phenyl)-[1,2,4]triazolo[4,3-a]pyridine-6-carboxamido)phenyl)acetic acid], the half-maximal inhibitory concentration (IC50) is > 10 µM.

As for `CC(C)n1ccc2c(-c3cccc(CN)c3)cc(COc3cc(F)ccc3CC(=O)O)cc21` [Compound 449c, 2-(2-((4-(3-(aminomethyl)phenyl)-1-isopropyl-1H-indol-6-yl)methoxy)-4-fluorophenyl)acetic acid], the IC50 is < 1 µM.

As to `Cc1cc(CC(=O)O)c(OCc2cc(-c3ccnc(CN)c3F)c3occc3c2)cc1C` [Compound 430c, 2-(2-((7-(2-(aminomethyl)-3-fluoropyridin-4-yl)benzofuran-5-yl)methoxy)-4,5-dimethylphenyl)acetic acid], the IC50 was < 1 µM.

Regarding `NCc1cccc(-c2cc(C(=O)Nc3ccccc3CC(=O)O)nc3[nH]ccc23)c1` [Compound 14d, 2-(2-(4-(3-(aminomethyl)phenyl)-1H-pyrrolo[2,3-b]pyridine-6-carboxamido)phenyl)acetic acid], the IC50 lay within 1 to 10 µM.

Take `CCOC(=O)Cc1ccccc1NC(=O)c1cc(-c2cccc(CN)c2)c2occc2c1` [Compound 15c, ethyl 2-(2-(7-(3-(aminomethyl)phenyl)benzofuran-5-carboxamido)phenyl)acetate]: the IC50 is > 10 µM.

For `COc1cccc(CC(=O)O)c1OCc1cc(-c2cccc(CN)c2F)c2occc2c1` [Compound 508b, 2-(2-((7-(3-(aminomethyl)-2-fluorophenyl)benzofuran-5-yl)methoxy)-3-methoxyphenyl)acetic acid], the half-inhibitory concentration (IC50) is < 1 µM.

As to `CNC(=O)c1cc2cc(COc3ccccc3CC(=O)O)cc(-c3cccc(CN)c3)c2o1` [Compound 289d, 2-(2-((7-(3-(aminomethyl)phenyl)-2-(methylcarbamoyl)benzofuran-5-yl)methoxy)phenyl)acetic acid], the IC50 is < 1 µM.

For the molecule `NCc1ccc(-c2cc(COc3ccccc3CC(=O)O)cc3ccoc23)s1` [Compound 206c, 2-(2-((7-(5-(aminomethyl)thiophen-2-yl)benzofuran-5-yl)methoxy)phenyl)acetic acid], the IC50 is < 1 µM.
